Data as given in patent US4301177A, “(3-Methyl-2-butenyl)propanedioic acid mono (1,2-diphenylhydrazide) and salts thereof” (Istituto de Angeli S.p.A., priority 1979, dated 1981).
Counter-ions that a name gives are not always drawn.

Tests used:
[1] = tested on: rats; assay: Effect on arthritis induced in rats by Freund's adjuvant (Table II); format: in vivo, male Sprague-Dawley rats; details: day 20
[2] = tested on: mice; assay: Analgesic activity, hot plate test in mice (Table III); format: in vivo, male Swiss mice
Experimental: (§1) In the present study the test compounds were administered perorally by means of a stomach tube as an aqueous suspension in 5% acacia gum at a constant volume of 10 ml/kg to male Swiss mice and male Sprague-Dawley rats. Control rats and mice were given a corresponding volume of the aqueous suspension medium. The results were statistically evaluated by Dunnett's test (C. V. Dunnett.: J.A. Stat. Ass., 40, 1096, 1955).
The analgesic activity was evaluated in mice by the hot plate test according to Janssen and Jageneau (J.Pharm.Pharmac., 9, 381, 1957).
The plate temperature was kept constant at 55° C.; the reaction time was determined before and 30, 60, 90 and 120 minutes after oral administration of the test compound. Average values after administration of the test compound were compared to those obtained before treatment.

[3] = tested on: rats; assay: Analgesic-anti-inflammatory activity, Randall and Selitto, brewer's yeast inflamed paw in rats (Table IV); format: in vivo, male Sprague-Dawley rats; details: for Analgesic Index: ratio to controls (1.0)
Experimental: as §1
4. Analgesic-anti-inflammatory activity
The analgesic-anti-inflammatory activity was evaluated in rats by the method of Randall and Selitto (Arch. Int. Pharmacodyn., 111, 409, 1957), using an analgesimeter to measure the minimum load that must be applied to a rat's hind paw to elicit a painful stimulus.
Both the controls and the experimental rats were injected into the right hind paw with 0.1 ml of 20% brewer's yeast in sterile saline immediately before the administration of the test compound.
The volume of the inflamed right hind paw was measured 1, 2 and 4 hours after the administration of the test compound.
The analgesic-anti-inflammatory activity was evaluated using an "analgesic index" expressed as a ratio between the sum of the average weights (grams) necessary to provoke a painful stimulus at different times in treated and control animals.

[4] = tested on: rats; assay: Antipyretic activity, fever induced by brewer's yeast in rats (Table V); format: in vivo, male Sprague-Dawley rats
Experimental: as §1
The antipyretic activity was investigated in rats by the method of Niemegeers et al. (see Arzneim.Forsch. 25, 1519, 1975). The rectal temperature was measured immediately before and 4 hours after the subcutaneous injection of 1 ml/100 g body weight of a 15% brewer's yeast suspension in 1% acacia gum.
The test compound was administered orally to groups of 5 different rats per dose 4 hours after the yeast injection. The rectal temperature was measured 0.5, 1, 1.5, 2, 2.5, 3 and 19 hours after treatment.
(§2) Average values of the temperatures obtained in the treated rats were compared with those of control rats.

[5] = tested on: rats; assay: Effect on normal temperature of rats (Table VI); format: in vivo, male Sprague-Dawley rats
Experimental: as §1
6. Effect on normal temperature of rats
The rectal temperature was measured at 30-minute intervals before and after administration of the test compound, that is, at -1.5, -1, -0.5, 0.5, 1, 1.5 and 2 hours, using groups of 10 rats each for each dosage level.
as §2

[6] = tested on: rats; assay: Ulcerogenic effect, gastric lesions in rats (Table VIII); format: in vivo, male Sprague-Dawley rats; details: for Body weight, mean ± standard deviation / % animals with gastric lesions / Ulcerogenic Index: single dose; for % animals with gastric lesions / Ulcerogenic Index: 16 h
Experimental: as §1
The ulcerogenic effect was determined in rats by the method of Niemegeers et al. (Arzneimittel-Forschung 25, 1537, 1975). A single oral dose was administered to groups of 15 rats fasted for 9 hours before treatment and kept fasting throughout the whole experimental period. The animals were sacrificed 16 hours after treatment; the severity of lesions was scored according to an arbitrary scale ranging from + to ++++. For each group of rats, an ulcerogenic index was calculated according to Pauls et al., (Gastroenterology 8, 774, 1947).

CC(C)=CCC(C(=O)O)C(=O)N(Nc1ccccc1)c1ccccc1 (stereo not drawn) [A, Calcium salt of (3-methyl-2-butenyl)propanedioic acid mono(1,2-diphenylhydrazide)]
% Inhibition ([1]; 40 mg/kg oral): 34%
% Inhibition ([1]; 80 mg/kg oral): 35%
% Inhibition ([1]; 160 mg/kg oral): 45%
Reaction time ([2]; 50 mg/kg oral, 0 (before administration)): 15.40 ± 2.76 s
Reaction time ([2]; 50 mg/kg oral, 30 min): 16.70 ± 3.86 s
Reaction time ([2]; 100 mg/kg oral, 0 (before administration)): 12.90 ± 3.21 s
Reaction time ([2]; 200 mg/kg oral, 0 (before administration)): 14.40 ± 2.95 s
analgesic activity in the hot plate test compared with bumadizon calcium ([2]; summary, Table III): higher, begins earlier and lasts longer than that of bumadizon calcium
Mean of the weights eliciting painful stimulus ([3]; 40 mg/kg oral, 1 h): 196.2 grams
Mean of the weights eliciting painful stimulus ([3]; 40 mg/kg oral, 2 h): 128.8 grams
Mean of the weights eliciting painful stimulus ([3]; 40 mg/kg oral, 4 h): 95.0 grams
Analgesic Index ([3]; 40 mg/kg oral): 1.49
Mean of the weights eliciting painful stimulus ([3]; 80 mg/kg oral, 1 h): 192.6 grams
Mean of the weights eliciting painful stimulus ([3]; 80 mg/kg oral, 2 h): 147.6 grams
Mean of the weights eliciting painful stimulus ([3]; 80 mg/kg oral, 4 h): 146.2 grams
Analgesic Index ([3]; 80 mg/kg oral): 1.72
Mean of the weights eliciting painful stimulus ([3]; 160 mg/kg oral, 1 h): 245.0 grams
Mean of the weights eliciting painful stimulus ([3]; 160 mg/kg oral, 2 h): 171.2 grams
Mean of the weights eliciting painful stimulus ([3]; 160 mg/kg oral, 4 h): 143.8 grams
Analgesic Index ([3]; 160 mg/kg oral): 1.98
Rectal temperature ([4]; 40 mg/kg oral, 0 h (4 h after yeast, before treatment)): 38.00 °C
Rectal temperature ([4]; 40 mg/kg oral, 0.5 h): 37.51 °C
Rectal temperature ([4]; 40 mg/kg oral, 1 h): 38.41 °C
Rectal temperature ([4]; 40 mg/kg oral, 1.5 h): 38.24 °C
Rectal temperature ([4]; 40 mg/kg oral, 2 h): 38.23 °C
Rectal temperature ([4]; 40 mg/kg oral, 2.5 h): 38.28 °C
Rectal temperature ([4]; 40 mg/kg oral, 3 h): 38.10 °C
Rectal temperature ([4]; 40 mg/kg oral, 19 h): 37.51 °C
Rectal temperature ([4]; 40 mg/kg oral, -4 h (before yeast)): 37.00 °C
Rectal temperature ([4]; 80 mg/kg oral, 0 h (4 h after yeast, before treatment)): 38.14 °C
Rectal temperature ([4]; 80 mg/kg oral, 0.5 h): 37.16 °C
Rectal temperature ([4]; 80 mg/kg oral, 1 h): 37.47 °C
Rectal temperature ([4]; 80 mg/kg oral, 1.5 h): 37.54 °C
Rectal temperature ([4]; 80 mg/kg oral, 2 h): 37.57 °C
Rectal temperature ([4]; 80 mg/kg oral, 2.5 h): 37.47 °C
Rectal temperature ([4]; 80 mg/kg oral, 3 h): 37.47 °C
Rectal temperature ([4]; 80 mg/kg oral, 19 h): 36.75 °C
Rectal temperature ([4]; 80 mg/kg oral, -4 h (before yeast)): 37.06 °C
Rectal temperature ([4]; 160 mg/kg oral, 0 h (4 h after yeast, before treatment)): 38.06 °C
Rectal temperature ([4]; 160 mg/kg oral, 0.5 h): 37.14 °C
Rectal temperature ([4]; 160 mg/kg oral, 1 h): 37.20 °C
Rectal temperature ([4]; 160 mg/kg oral, 1.5 h): 37.62 °C
Rectal temperature ([4]; 160 mg/kg oral, 2 h): 37.67 °C
Rectal temperature ([4]; 160 mg/kg oral, 2.5 h): 37.58 °C
Rectal temperature ([4]; 160 mg/kg oral, 3 h): 37.76 °C
Rectal temperature ([4]; 160 mg/kg oral, 19 h): 37.86 °C
Rectal temperature ([4]; 160 mg/kg oral, -4 h (before yeast)): 36.46 °C
Rectal temperature (normal rats) ([5]; 40 mg/kg oral, 0.5 h): 35.96 °C
Rectal temperature (normal rats) ([5]; 40 mg/kg oral, 1 h): 36.28 °C
Rectal temperature (normal rats) ([5]; 40 mg/kg oral, 1.5 h): 36.34 °C
Rectal temperature (normal rats) ([5]; 40 mg/kg oral, 2 h): 36.54 °C
Rectal temperature (normal rats) ([5]; 40 mg/kg oral, -0.5 h (before administration)): 36.20 °C
Rectal temperature (normal rats) ([5]; 40 mg/kg oral, -1 h (before administration)): 36.62 °C
Rectal temperature (normal rats) ([5]; 40 mg/kg oral, -1.5 h (before administration)): 36.81 °C
Rectal temperature (normal rats) ([5]; 80 mg/kg oral, 0.5 h): 36.25 °C
Rectal temperature (normal rats) ([5]; 80 mg/kg oral, 1 h): 36.12 °C
Rectal temperature (normal rats) ([5]; 80 mg/kg oral, 1.5 h): 36.14 °C
Rectal temperature (normal rats) ([5]; 80 mg/kg oral, 2 h): 36.15 °C
Rectal temperature (normal rats) ([5]; 80 mg/kg oral, -0.5 h (before administration)): 36.33 °C
Rectal temperature (normal rats) ([5]; 80 mg/kg oral, -1 h (before administration)): 36.42 °C
Rectal temperature (normal rats) ([5]; 80 mg/kg oral, -1.5 h (before administration)): 36.75 °C
Rectal temperature (normal rats) ([5]; 160 mg/kg oral, 0.5 h): 35.71 °C
Rectal temperature (normal rats) ([5]; 160 mg/kg oral, 1 h): 35.85 °C
Rectal temperature (normal rats) ([5]; 160 mg/kg oral, 1.5 h): 35.91 °C
Rectal temperature (normal rats) ([5]; 160 mg/kg oral, 2 h): 35.86 °C
Rectal temperature (normal rats) ([5]; 160 mg/kg oral, -0.5 h (before administration)): 36.22 °C
Rectal temperature (normal rats) ([5]; 160 mg/kg oral, -1 h (before administration)): 36.32 °C
Rectal temperature (normal rats) ([5]; 160 mg/kg oral, -1.5 h (before administration)): 37.01 °C
Body weight, mean ± standard deviation ([6]; 40 mg/kg oral): 206.67 ± 9.00 grams
% animals with gastric lesions ([6]; 40 mg/kg oral): 0%
Ulcerogenic Index ([6]; 40 mg/kg oral): 0
Body weight, mean ± standard deviation ([6]; 80 mg/kg oral): 205.33 ± 6.40 grams
% animals with gastric lesions ([6]; 80 mg/kg oral): 0%
Ulcerogenic Index ([6]; 80 mg/kg oral): 0
Body weight, mean ± standard deviation ([6]; 160 mg/kg oral): 212.67 ± 12.23 grams
% animals with gastric lesions ([6]; 160 mg/kg oral): 0%
Ulcerogenic Index ([6]; 160 mg/kg oral): 0
Body weight, mean ± standard deviation ([6]; 320 mg/kg oral): 218.67 ± 6.40 grams
% animals with gastric lesions ([6]; 320 mg/kg oral): 46.66%
Ulcerogenic Index ([6]; 320 mg/kg oral): 71.38
ulcerogenic effect compared with prior art compound ([6]; summary, Table VIII): less ulcerogenic
